Structures are written as SMILES. Where “and” joins values, the source holds several entries; their conditions need not be identical. Equal values may be shown once. Read-outs that look alike come from different tables or passages of the source.

In data set [1] the test system is mélanocytes humains normaux. Put plainly: Melano-modulating effect: intracellular melanin / protein ratio in monolayer melanocytes (step 1 single actives, step 2 complex). Type of data set: cell-based. The note with it: 72 h. On the procedure:
Ces essais ont été menés sur un modèle de mélanocytes humains normaux cultivés en mono couche.
Les mélanocytes humains normaux ont été mis en incubation pendant 72 heures en l'absence (témoin) ou en présence d'un produit de référence (acide kojique 250 µM)) ou de concentrations croissantes des produits actifs essayés.
Dans cette méthode, on dose le rapport mélanine/protéines en pourcentage du témoin. On a déterminé également les valeurs obtenues avec le solvant seul et une solution d'acide kojique à 250 µM dans ce solvant(DMSO) pris comme substance de référence.
Tableau II Véhicule (DMSO) et produit de référence
On a utilisé des mélanocytes humains normaux issus d'un sujet jeune âgé de 4 ans. On les a cultivé en monocouche jusqu'à confluence de 80%.
On a employé comme inhibiteur de tyrosinase de référence, l'acide kojique à 250 µM.
Les mélanocytes ont été mis en incubation pendant 72 heures à 37°C sous atmosphère humide et sous 5% de CO2 en l'absence (témoin) ou en présence d'acide kojique ou de concentrations croissantes de principes actifs à l'essai (0.1; 0.5 1%)
A la fin de la période d'incubation, le contenu intracellulaire en mélanine a été quantifié après lyse cellulaire par mesure spectrophotométrique à 405nm.
A la fin de la période d'incubation, les protéines contenues dans les lysats cellulaires ont été dosés par une méthode spectrocolorimétrique faisant appel au bleu de Coomassie (selon la méthode de Bradford M. Anal. Biochem. 72 (1976) 248-254).
Les résultats sont donnés sous forme de pourcentage de mélanine par rapport aux témoins (moyenne + ou- déviation standard SD) calculés à partir de valeurs obtenues en µg de mélanine intracellulaire par mg de protéines totales du tapis cellulaire.
On a déterminé la significativité statistique des différences constatées entre les conditions des « témoin » et « Produits à l'essai » selon une analyse de variance à un seul facteur (ANOVA) suivi d'un test de Holm-Sidak (* = […] < 0,05)

The test system of data set [2] is mélanocytes humains normaux. Briefly: Cytotoxicity: viability of melanocytes by spectrophotometric assay of intracellular phosphatase activity (p-nitrophenyl phosphate, 405 nm). On the procedure:
On effectue la détermination sur des mélanocytes humains normaux obtenus à partir d'un sujet jeune (4 ans). Pour les réalisations des essais, les cellules ont été cultivées jusqu'à l'obtention de mono couches confluentes.
Les cellules ont mises en incubation pendant 72 heures en l'absence (essai témoin) ou en présence de concentrations croissantes de composé E ou de chacun des produits essayés. Pour le composé E, on a essayé des concentrations de 0.003; 0.03; 0.075; 0.15; 0.5; 0.75; 1.5 et 3% (v/v) et pour le produit selon l'invention : 0.01; 0.1; 0.25; 0.5; 1; 2.5; 5; 10% (v/v).
A titre de comparaison, on a préparé une solution à 10% d'acide kojique et une solution d'acide lactique à 30% (composition E).
Les préparations essayées ont été ensuite diluées directement dans le milieu d'incubation des mélanocytes.
A la fin de la période d'incubation, la viabilité des cellules a été évaluée par une méthode spectrophotométrique de dosage de l'activité des phosphatases intracellulaires.
Selon la méthode de Yan T. et al. (Anal. Biochem. 24 (1996) 103-108), on dose le p-nitrophénol résultant de la transformation du phosphate de p-nitrophényle par les phosphatases intra-cellulaires des cellules viables.
L'absorbance du p-nitrophénol libéré à 405 nm est directement proportionnelle au nombre des cellules viables présentes dans le puits de culture.

For the compound `O=c1cc(CO)occ1O` [Acide Kojique, acide kojique], the activity at 250 µM in data set [1] (Melanocyte, step 1, Acide Kojique 250 µM in DMSO, mean, * p<0,05, read-out: mélanine / protéines (% du témoin) Moyenne) turned out to be 77.4%; in data set [1] (Melanocyte, step 2, Acide kojique 250 µM, mean (controls mean 119,2), * p<0,05, read-out: Mélanines/ protéines (% du témoin) Moyenne), 101%; in data set [1] (Melanocyte, step 2, Acide kojique 250 µM, mean normalised to controls = 100, read-out: % témoin), 84.5%; in data set [1] (Melanocyte, step 2, Acide kojique 250 µM, single replicate (controls mean 119,2), read-out: Mélanines/ protéines (% du témoin)), 106%. Also, the inhibition at 250 µM in data set [1] (Melanocyte, step 2, acide kojique 250 µM, p < 0.05, read-out: réduction du contenu intracellulaire en mélanine) worked out at 15.5%. In data set [1] (step 2, Acide kojique 250 µM, single replicate (controls mean 119,2), 4320 min, 250 µM), the “Mélanines/ protéines (% du témoin)” value is 93,2 % du témoin and 102,8 % du témoin and 94,1 % du témoin and 97,9 % du témoin.

As for `CC(O)C(=O)O` (centres unmarked) [Actif E, acide lactique], the “dose à partir de laquelle un effet cytotoxique est détectable” value in data set [2] (72 h, detectable = less than 80 % viable cells) is 0.03%.

`NCCCC(=O)O` [A, acide gamma-aminobutyrique]: the “dose à partir de laquelle un effet cytotoxique est détectable” value in data set [2] (human, 4320 min) turned out to be 0.5%.

For the origin of these results see patent EP2228050A1, “Use of gamma-aminobutyric acid as a depigmenting agent” (priority 2009, dated 2010).
